Here are results for 38 molecules from patent US10173996B2, “Histone demethylase inhibitors” (CELGENE QUANTICEL RESEARCH, INC., priority 2012, dated 2019).

A value given as a limit tells only on which side of the number the result lay.

The assay relates to KDM5A and KDM5B (tri-methyl H3K4, ZR-75-1 breast cancer cell line). Nature of the assay: In vitro cell-based assay: tri-methyl H3K4 immuno-blotting in ZR-75-1 breast cancer cells. To be noted: Homo sapiens, 72 hours with test compound, read-out: Cellular IC50. From the text:
This quantitative immuno-blotting assay measures the amount tri-methylated histone H3 at amino acid Lysine number 4, a specific substrate […] of the direct enzymatic activity of the histone demethylases KDM5A and KDM5B from extracts of the ZR-75-1 breast cancer cell line.
This assay is a fluorometric immunoassay for the quantification of tri-methyl H3K4 extracted from cells treated with test compound and is used as a measure of the cellular inhibition of KDM5A/B.
ZR-75-1(PTEN null, ER+) breast cancer cells numbering 50,000 (ATCC) were seeded into each well of a 96-well tissue culture treated plate and then exposed to an 11 point dilution of test compound with final concentration ranges of test compound ranging from […] to 10 nM. […] Extracts were prepared containing all of the cellular histone material using detergent based lysis and sonication methods. These lysates were subsequently normalized for total protein content using a colorimetric bicinchonic acid assay (MicroBCA Pierce/Thermo Scientific). Normalized cell extracts were then subjected to typical immuno-blotting procedures using NuPage reagents (Life Technologies). Electrophoretically separated histones were then transferred and immobilized using polyvinylidene difluoride membrane (Immobilon-FL Millipore). The amount of tri-methylated lysine 4 of histone H3 was detected using an antibody specific to the tri-methylated state (Cell Signaling Technologies) and quantified on an infrared imager using a densitometry software package (Odyssey CLx, Image Studio, Li-Cor). This background subtracted densitometry value was reported as a ration of the GAPDH amount for that sample and then calculated as a percent of the DMSO treated sample. The software package XL-fit (IDBS) was then used to calculate a relative IC50 value for the dilution series of a given test compound according to the equation: fit=(D+((Vmax*(x^n))/((x^n)+(Km^n)))).
By IC50 is commonly meant the midpoint of a concentration-inhibition curve. `O=C(O)c1ccnc(-n2nccc2OCc2ccc(Cl)cc2F)c1` [Example 75, 2-{5-[(4-chloro-2-fluorobenzyl)oxy]-1H-pyrazol-1-yl}pyridine-4-carboxylic acid]: the IC50 lay in the range of 1000 to 10000 nM.

As for `Cc1ccc(COc2ccnn2-c2cc(C(=O)O)ccn2)cc1Cl` [Example 92, 2-[5-[(3-chloro-4-methylphenyl)methoxy]pyrazol-1-yl]pyridine-4-carboxylic acid], the IC50 lay within 100 to 1000 nM.

Take `O=C(O)c1ccnc(-n2nccc2OCc2ccccc2)c1` [Example 39, 2-(5-(benzyloxy)-1H-pyrazol-1-yl)isonicotinic acid]: the IC50 lay within 1000 to 10000 nM.

`O=C(O)c1ccnc(-n2nccc2OCc2ccc(F)cc2OCc2ccc(F)cc2)c1` [Example 118, 2-[5-[[4-fluoro-2-[(4-fluorophenyl)methoxy]phenyl]methoxy]pyrazol-1-yl]pyridine-4-carboxylic acid]: the IC50 is 1000 to 10000 nM.

`Cc1ccc(COc2ccnn2-c2cc(C(=O)O)ccn2)c(Cl)c1` [Example 130, 2-[5-[(2-chloro-4-methylphenyl)methoxy]pyrazol-1-yl]pyridine-4-carboxylic acid]: the IC50 lay in the range of 1000 to 10000 nM.

Take `Cc1cc(F)ccc1COc1ccnn1-c1cc(C(=O)O)ccn1` [Example 128, 2-[5-[(4-fluoro-2-methylphenyl)methoxy]pyrazol-1-yl]pyridine-4-carboxylic acid]: the IC50 lay within 100 to 1000 nM.

As for `CCc1ccc(COc2ccnn2-c2cc(C(=O)O)ccn2)c(F)c1` [Example 151, 2-[5-[(4-ethyl-2-fluorophenyl)methoxy]pyrazol-1-yl]pyridine-4-carboxylic acid], the IC50 lay in the range of 1000 to 10000 nM.

As for `O=C(O)c1ccnc(-n2nccc2OCc2ccc(Cl)c(OCc3ccc(F)cc3)c2)c1` [Example 138, 2-[5-[[4-chloro-3-[(4-fluorophenyl)methoxy]phenyl]methoxy]pyrazol-1-yl]pyridine-4-carboxylic acid], the IC50 was 1000 to 10000 nM.

Turning to `O=C(O)c1ccnc(-n2nccc2OCc2ccc(F)cc2CCc2ccc(F)cc2)c1` [Example 121, 2-[5-[[4-fluoro-2-[2-(4-fluorophenyl)ethyl]phenyl]methoxy]pyrazol-1-yl]pyridine-4-carboxylic acid], the IC50 is 1000 to 10000 nM.

`COC(=O)c1ccnc(-n2nccc2OCc2ccc(F)c(F)c2)c1` [Example 63, methyl 2-{5-[(3,4-difluorobenzyl)oxy]-1H-pyrazol-1-yl}pyridine-4-carboxylate]: the IC50 lay within 100 to 1000 nM.

For `O=C(O)c1ccnc(-n2nccc2OCc2ccc(F)c(Cl)c2)c1` [Example 76, 2-{5-[(3-chloro-4-fluorobenzyl)oxy]-1H-pyrazol-1-yl}pyridine-4-carboxylic acid], the IC50 fell in the range of 1000 to 10000 nM.

For `Cc1ccc(COc2ccnn2-c2cc(C(=O)O)ccn2)c(C)c1` [Example 132, 2-[5-[(2,4-dimethylphenyl)methoxy]pyrazol-1-yl]pyridine-4-carboxylic acid], the IC50 lay in the range of 100 to 1000 nM.

Turning to `COc1cc(Cl)ccc1COc1ccnn1-c1cc(C(=O)O)ccn1` [Example 90, 2-[5-[(4-chloro-2-methoxyphenyl)methoxy]pyrazol-1-yl]pyridine-4-carboxylic acid], the IC50 was 100 to 1000 nM.

For the molecule `Cc1cc(Br)ccc1COc1ccnn1-c1cc(C(=O)O)ccn1` [Example 142, 2-[5-[(4-bromo-2-methylphenyl)methoxy]pyrazol-1-yl]pyridine-4-carboxylic acid], the IC50 fell in the range of 1000 to 10000 nM.

For the molecule `Cc1ccc(COc2ccnn2-c2cc(C(=O)O)ccn2)c(C#N)c1` [Example 134, 2-[5-[(2-cyano-4-methylphenyl)methoxy]pyrazol-1-yl]pyridine-4-carboxylic acid], the IC50 was 1000 to 10000 nM.

On to `CC(Oc1cc(F)ccc1COc1ccnn1-c1cc(C(=O)O)ccn1)c1ccccc1` (centres unmarked) [Example 137, 2-[5-[[4-fluoro-2-(1-phenylethoxy)phenyl]methoxy]pyrazol-1-yl]pyridine-4-carboxylic acid], for which the IC50 lay within 1000 to 10000 nM.

For the molecule `O=C(O)c1ccnc(-n2nccc2OCc2ccc(F)c(F)c2)c1` [Example 52, 2-{5-[(3,4-difluorobenzyl)oxy]-1H-pyrazol-1-yl}pyridine-4-carboxylic acid], the IC50 lay within 100 to 1000 nM.

For `O=C(O)c1ccnc(-n2nccc2OCc2ccc(F)cc2F)c1` [Example 86, 2-[5-[(2,4-difluorophenyl)methoxy]pyrazol-1-yl]pyridine-4-carboxylic acid], the IC50 fell in the range of 1000 to 10000 nM.

On to `O=C(O)c1ccnc(-n2nccc2OCc2ccc(Cl)c(OCC(F)(F)F)c2)c1` [Example 141, 2-[5-[[4-chloro-3-(2,2,2-trifluoroethoxy)phenyl]methoxy]pyrazol-1-yl]pyridine-4-carboxylic acid], for which the IC50 lay in the range of 1000 to 10000 nM.

`COC(=O)c1ccnc(-n2nccc2OCc2ccc(Cl)cc2)c1` [Example 64, Methyl 2-{5-[(4-chlorobenzyl)oxy]-1H-pyrazol-1-yl}pyridine-4-carboxylate]: the IC50 fell in the range of 100 to 1000 nM.

`CCc1cc(C#N)ccc1COc1ccnn1-c1cc(C(=O)O)ccn1` [Example 126, 2-[5-[(4-cyano-2-ethylphenyl)methoxy]pyrazol-1-yl]pyridine-4-carboxylic acid]: the IC50 was greater than 10000 nM.

As for `O=C(O)c1ccnc(-n2nccc2OCc2ccc(F)cc2)c1` [Example 40, 2-{5-[(4-fluorobenzyl)oxy]-1H-pyrazol-1-yl}pyridine-4-carboxylic acid], the IC50 fell in the range of 100 to 1000 nM.

Take `CCc1ccc(COc2ccnn2-c2cc(C(=O)O)ccn2)cc1` [Example 56, 2-{5-[(4-ethylbenzyl)oxy]-1H-pyrazol-1-yl}pyridine-4-carboxylic acid]: the IC50 lay in the range of 100 to 1000 nM.

Regarding `O=C(O)c1ccnc(-n2nccc2OCc2cccc(F)c2)c1` [Example 41, 2-{5-[(3-fluorobenzyl)oxy]-1H-pyrazol-1-yl}pyridine-4-carboxylic acid], the IC50 is greater than 10000 nM.

For `O=C(O)c1ccnc(-n2nccc2OCc2cccc(Cl)c2)c1` [Example 58, 2-{5-[(3-chlorobenzyl)oxy]-1H-pyrazol-1-yl}pyridine-4-carboxylic acid], the concentration for half-maximal inhibition (IC50) lay in the range of 100 to 1000 nM.

On to `COc1cc(I)ccc1COc1ccnn1-c1cc(C(=O)O)ccn1` [Example 145, 2-[5-[(4-iodo-2-methoxyphenyl)methoxy]pyrazol-1-yl]pyridine-4-carboxylic acid], for which the IC50 lay within 1000 to 10000 nM.

As for `CC(Oc1cc(Cl)ccc1COc1ccnn1-c1cc(C(=O)O)ccn1)c1ccccc1` (centres unmarked) [Example 136, 2-[5-[[4-chloro-2-(1-phenylethoxy)phenyl]methoxy]pyrazol-1-yl]pyridine-4-carboxylic acid], the IC50 lay within 1000 to 10000 nM.

On to `Cc1cc(I)ccc1COc1ccnn1-c1cc(C(=O)O)ccn1` [Example 144, 2-[5-[(4-iodo-2-methylphenyl)methoxy]pyrazol-1-yl]pyridine-4-carboxylic acid], for which the IC50 lay within 1000 to 10000 nM.

Consider `O=C(O)c1ccnc(-n2nccc2OCc2ccc(Cl)c(OCC3CC3)c2)c1` [Example 140, 2-[5-[[4-chloro-3-(cyclopropylmethoxy)phenyl]methoxy]pyrazol-1-yl]pyridine-4-carboxylic acid], for which the IC50 is 1000 to 10000 nM.

Take `Cc1ccc(COc2ccnn2-c2cc(C(=O)O)ccn2)cc1` [Example 55, 2-{5-[(4-methylbenzyl)oxy]-1H-pyrazol-1-yl}pyridine-4-carboxylic acid]: the IC50 lay within 100 to 1000 nM.

`N#Cc1ccc(COc2ccnn2-c2cc(C(=O)O)ccn2)cc1` [Example 99, 2-[5-[(4-cyanophenyl)methoxy]pyrazol-1-yl]pyridine-4-carboxylic acid]: the IC50 was in the range of 100 to 1000 nM.

Take `Cc1ccc(COc2ccnn2-c2cc(C(=O)O)ccn2)c(F)c1` [Example 131, 2-[5-[(2-fluoro-4-methylphenyl)methoxy]pyrazol-1-yl]pyridine-4-carboxylic acid]: the IC50 was in the range of 1000 to 10000 nM.

As to `Cc1ccc(COc2ccnn2-c2cc(C(=O)O)ccn2)cc1F` [Example 93, 2-[5-[(3-fluoro-4-methylphenyl)methoxy]pyrazol-1-yl]pyridine-4-carboxylic acid], the IC50 lay within 100 to 1000 nM.

On to `COC(=O)c1ccnc(-n2nccc2OCc2ccc(C#N)cc2)c1` [Example 98, methyl 2-[5-[(4-cyanophenyl)methoxy]pyrazol-1-yl]pyridine-4-carboxylate], for which the IC50 fell in the range of 1000 to 10000 nM.

Consider `CCc1cc(F)ccc1COc1ccnn1-c1cc(C(=O)O)ccn1` [Example 129, 2-[5-[(2-ethyl-4-fluorophenyl)methoxy]pyrazol-1-yl]pyridine-4-carboxylic acid], for which the IC50 was in the range of 1000 to 10000 nM.

For the molecule `O=C(O)c1ccnc(-n2nccc2OCC2CCC(F)(F)CC2)c1` [Example 71, 2-{5-[(4,4-difluorocyclohexyl)methoxy]-1H-pyrazol-1-yl}pyridine-4-carboxylic acid], the IC50 was in the range of 1000 to 10000 nM.

As for `Cc1ccc(COc2ccnn2-c2cc(C(=O)O)ccn2)c(F)c1F` [Example 94, 2-[5-[(2,3-difluoro-4-methylphenyl)methoxy]pyrazol-1-yl]pyridine-4-carboxylic acid], the IC50 was in the range of 1000 to 10000 nM.

As for `O=C(O)c1ccnc(-n2nccc2OCc2ccc(Cl)cc2)c1` [Example 53, 2-{5-[(4-chlorobenzyl)oxy]-1H-pyrazol-1-yl}pyridine-4-carboxylic acid], the IC50 lay in the range of 100 to 1000 nM.
